Assay results from PMC12383145, “Fluorescent Peptides Internalize HeLa Cells and Kill Multidrug-Resistant Clinical Bacterial Isolates” (Antibiotics, 2025).
In brackets after ≈: the same amount, converted by molar mass. Several values for one entry are separate records, joined by “and”; a condition that tells them apart may be missing. Identical values can stand only once. Like-named read-outs stand apart in the source and are kept apart here. Non-standard residues stand in square brackets, D forms with d. Residues, ends and D or L forms follow the SMILES beside them. No end group written: not given here. 2Abz = Nc1ccccc1C(=O)O

What was measured:
Format in all cases: cell-based
[1] = Hemolysis assay
Experimental: Whole blood was collected into EDTA tubes and centrifuged at 2500 rpm for 10 min. The plasma and buffy coat were removed, and the erythrocytes were washed three times with 0.9% saline to yield a 4% cell suspension. In 96-well plates, 100 µL of peptide dilutions (6.25–200 µg/mL) were prepared in triplicate, and 100 µL of the erythrocyte suspension was added (final hematocrit 2%). Plates were incubated at 37 °C for 2 h, and then centrifuged again at 2500 rpm for 10 min. A 100 µL aliquot of the supernatant was transferred to a fresh plate, and absorbance was measured at 450 nm. Saline and 1× Triton X-100 served as the negative and positive controls, respectively. Hemolysis (%) was calculated as follows: %hemolysis=treatment absorbance−saline absorbance/1×triton absorbance−saline absorbance

[2] = test system: clinical isolates of S. aureus; settings: stated for the S. aureus clinical isolates together
Experimental: (§1) E. coli isolates 1004 (susceptible), 129797 (resistant), and 301755 (MDR) were selected for evaluation. Isolate 1004 was sensitive to all antibiotics tested. […] These findings identify it as a multidrug-resistant (MDR) strain and an extended-spectrum beta-lactamase (ESBL)-producing bacterium. For S. aureus, isolates 109095, 117719, and 124653 were evaluated. All three were resistant to penicillin, indicating beta-lactamase production mediated by the blaZ gene. Studies have shown that up to 90% of S. aureus isolates worldwide are penicillin-resistant, which implies that this antibiotic is ineffective in infections caused by this pathogen. […] Isolate 124653 was resistant to penicillin, tetracycline, and erythromycin, with the latter belonging to the group of macrolides, antibiotics that inhibit protein synthesis through interaction with the 50S rRNA subunit. […]
(§2) The minimum inhibitory concentration (MIC) of the peptides was determined by the broth microdilution technique, according to the Clinical and Laboratory Standards Institute (CLSI) guidelines, as previously described. […] Serial dilutions of the peptides to be evaluated in 96-well plates were made in 90 µL of Mueller Hinton broth at concentrations ranging from 200 to 6.25 µg/mL, and 10 µL of the inoculum adjusted to 5 × 10^6 CFU/mL was added. Finally, the plates were incubated at 37 °C for 24 h, and the absorbance at 620 nm was read. […]

[3] = test system: E. coli ATCC 25922; settings: E. coli ATCC 25922
Experimental: (§3) The minimum inhibitory concentration (MIC) of the peptides was determined by the broth microdilution technique, according to the Clinical and Laboratory Standards Institute (CLSI) guidelines, as previously described. Briefly, bacterial strains were incubated in BHI broth at 37 °C until they reached the exponential growth phase, and inocula were adjusted to 5 × 10^6 CFU/mL using calibration curves. Serial dilutions of the peptides to be evaluated in 96-well plates were made in 90 µL of Mueller Hinton broth at concentrations ranging from 200 to 6.25 µg/mL, and 10 µL of the inoculum adjusted to 5 × 10^6 CFU/mL was added. Finally, the plates were incubated at 37 °C for 24 h, and the absorbance at 620 nm was read. As a negative control, CMH, distilled water, and 10 µL of inoculum were used; for the positive control, vancomycin was used for Gram-positive strains and ciprofloxacin for Gram-negative strains at the MICs dictated by the CLSI; as a technical control, CMH with peptone water was used, and for the growth control, CMH was used with 10 µL of inoculum.
(§4) To determine the minimum bactericidal concentration (MBC), the 96-well plates where the MIC was determined were used as a starting point. From these, an aliquot of the controls and those wells where no apparent bacterial growth was observed were spotted onto trypticase soy agar plates. The plates were incubated at 37 °C for 24 h, and the reading was taken, identifying the lowest concentration of the peptide where there was no bacterial growth as the MBC.

[4] = test system: P. aeruginosa ATCC 27853; settings: P. aeruginosa ATCC 27853
Experimental: as §3, §4

[5] = test system: S. aureus ATCC 25923; settings: S. aureus ATCC 25923
Experimental: as §3, §4

[6] = test system: E. faecalis ATCC 29212; settings: E. faecalis ATCC 29212
Experimental: as §3, §4

[7] = test system: K. pneumoniae ATCC 700603; settings: K. pneumoniae ATCC 700603
Experimental: as §3, §4

[8] = test system: S. aureus clinical isolate 11719; settings: S. aureus clinical isolate 11719
[9] = test system: E. faecalis clinical isolate 179; settings: E. faecalis clinical isolate 179
Experimental: (§5) E. coli isolates 1004 (susceptible), 129797 (resistant), and 301755 (MDR) were selected for evaluation. Isolate 1004 was sensitive to all antibiotics tested. […] These findings identify it as a multidrug-resistant (MDR) strain and an extended-spectrum beta-lactamase (ESBL)-producing bacterium. For S. aureus, isolates 109095, 117719, and 124653 were evaluated. All three were resistant to penicillin, indicating beta-lactamase production mediated by the blaZ gene. Studies have shown that up to 90% of S. aureus isolates worldwide are penicillin-resistant, which implies that this antibiotic is ineffective in infections caused by this pathogen. […] Isolate 124653 was resistant to penicillin, tetracycline, and erythromycin, with the latter belonging to the group of macrolides, antibiotics that inhibit protein synthesis through interaction with the 50S […] subunit. For E. faecalis three isolates were selected: strains 213 (sensitive to all the antibiotics tested), strain 82 (resistant to streptomycin), and strain 179 (resistant to gentamicin). These clinical isolates were selected to assess the antimicrobial activity of the peptide RWQWRWQWR and its analogues conjugated to fluorescent molecules in strains against strains with susceptibility profiles.
(§6) The analysis of synthesized peptides in ATCC reference strains and susceptible, resistant, and multidrug-resistant (MDR) clinical isolates was performed. The clinical isolates were obtained from the National Cancer Institute collection and were previously identified and antibiogrammed using the VITEK system. Additionally, the strains were characterized by MALDI-TOF. The strains were re-primed onto trypticase soy agar and subsequently preserved in Brain–Heart Infusion (BHI) broth containing 20% glycerol. For the MIC and MBC assays, the strains were reactivated and cultured in BHI until they reached their exponential growth phase.
as §3, §4

[10] = test system: clinical isolates of E. coli; settings: stated for the E. coli clinical isolates together
Experimental: as §5, §6, §3, §4

[11] = test system: E. coli clinical isolate 129797 (resistant); settings: E. coli clinical isolate 129797
Experimental: as §5, §6, §3, §4

[12] = test system: E. faecalis clinical isolate 82; settings: E. faecalis clinical isolate 82
Experimental: as §5, §6, §3, §4

[13] = test system: E. coli clinical isolate 301755 (MDR); settings: E. coli clinical isolate 301755
Experimental: as §5, §6, §3, §4

[14] = test system: S. aureus clinical isolate 124653; settings: S. aureus clinical isolate 124653
Experimental: as §5, §6, §3, §4

[15] = test system: S. aureus clinical isolate 109095; settings: S. aureus clinical isolate 109095
Experimental: as §5, §6, §3, §4

[16] = test system: E. faecalis clinical isolate 213; settings: E. faecalis clinical isolate 213
Experimental: as §5, §6, §3, §4

[17] = test system: E. coli clinical isolate 1004 (susceptible); settings: E. coli clinical isolate 1004
Experimental: as §5, §6, §3, §4

[18] = MTT cytotoxicity assay in HeLa cells; settings: HeLa cells, MTT, read-out: Cytotoxic Activity (IC50)
Experimental: (§7) MTT assays were conducted in HeLa cells to evaluate the effect of fluorescent probe incorporation on the in vitro cytotoxic activity of the parent non-conjugated peptides. The cytotoxic effect of peptides 1, Abz-1 RhB-1, 2, and RhB-2 in HeLa cells was peptide concentration-dependent, with the highest anticancer activity observed at 200 µg/mL. Incorporation of 2-Abz and RhB at the N-terminal end reduced cytotoxic activity, while the binding of 2-Abz at the C-terminal end or FAM at the N-terminal end drastically diminished anticancer activity (Table 4).

[19] = test system: HeLa cells; assay: MTT cytotoxicity assay in HeLa cells; settings: HeLa cells, 200 µg/mL; listed as palindromic peptide
Experimental: as §7

[20] = test system: clinical isolates of E. faecalis; settings: stated for the E. faecalis clinical isolates together
Experimental: as §1, §2

[21] = at 200 µg/mL (highest tested concentration), 2 h, 37 °C, read-out: hemolysis
[22] = at the lowest MIC concentration, read-out: Percentage of hemolysis
[23] = peptide concentration at 10% hemolysis / IC50 in HeLa cells, read-out: Selectivity index

Molecule | Minimal bactericidal concentration (MBC) [3] [µM] | Minimal inhibitory concentration (MIC) [3] [µM] | Minimal bactericidal concentration (MBC) [4] [µM] | Minimal inhibitory concentration (MIC) [4] [µM] | Minimal bactericidal concentration (MBC) [5] [µM] | Minimal inhibitory concentration (MIC) [5] [µM] | Minimal bactericidal concentration (MBC) [6] [µM] | Minimal inhibitory concentration (MIC) [6] [µM] | Minimal bactericidal concentration (MBC) [7] [µM] | Minimal inhibitory concentration (MIC) [7] [µM] | Minimal bactericidal concentration (MBC) [8] [µM] | Minimal inhibitory concentration (MIC) [8] [µM] | Minimal bactericidal concentration (MBC) [9] [µM] | Minimal inhibitory concentration (MIC) [9] [µM] | Minimal inhibitory concentration (MIC) [11] | Minimal bactericidal concentration (MBC) [12] | Minimal bactericidal concentration (MBC) [13] [µM] | Minimal inhibitory concentration (MIC) [13] [µM] | Minimal bactericidal concentration (MBC) [14] [µM] | Minimal inhibitory concentration (MIC) [14] [µM] | other results
RWQWRWQWR-NH2 [peptide 1, RWQWRWQWR] | 34 | 17 | > 135 | 67 | 34 | 17 | > 135 | 135 | 135 | 67 | > 135 | 135 | 135 | 135 | 34/34 µM | 67/67 µM | 67 | 34 | > 135 | 135 | hemolysis [1, 21]: 4.5%; hemolysis [1, 22]: 1.1%; selectivity ratio [1, 23]: > 3; MIC [2]: 135 µM; MIC [10]: 17 to 34 µM; Minimal bactericidal concentration (MBC) [15]: 135 µM; Minimal inhibitory concentration (MIC) [15]: 135 µM; Minimal bactericidal concentration (MBC) [16]: 135 µM; Minimal inhibitory concentration (MIC) [16]: 135 µM; Minimal bactericidal concentration (MBC) [17]: > 135 µM; Minimal inhibitory concentration (MIC) [17]: 17 µM; IC50 [18]: 77 µg/mL and 52 µM; cell viability [19]: about 20%
N=C(N)NCCC[C@H](NC(=O)[C@H](Cc1c[nH]c2ccccc12)NC(=O)[C@H](CCC(N)=O)NC(=O)[C@H](Cc1c[nH]c2ccccc12)NC(=O)[C@H](CCCNC(=N)N)NC(=O)[C@H](Cc1c[nH]c2ccccc12)NC(=O)[C@H](CCC(N)=O)NC(=O)[C@H](Cc1c[nH]c2ccccc12)NC(=O)[C@H](CCCNC(=N)N)NC(=O)c1ccccc1N)C(N)=O [Abz-1, (2-Abz)-RWQWRWQWR] (H-[2Abz]RWQWRWQWR-NH2) | 125 (≈ 201 µg/mL) | 62 (≈ 99.6 µg/mL) | > 125 | > 125 | 31 (≈ 49.8 µg/mL) | 16 (≈ 25.7 µg/mL) | 62 (≈ 99.6 µg/mL) | 62 (≈ 99.6 µg/mL) | > 125 | > 125 | > 125 | 125 (≈ 201 µg/mL) | 62 (≈ 99.6 µg/mL) | 31 (≈ 49.8 µg/mL) | > 125 µM | 62 µM (≈ 99.6 µg/mL) | > 125 | > 125 | > 125 | 125 (≈ 201 µg/mL) | hemolysis at 2 h [1, 21]: 13.4%; hemolysis at 2 h [1, 22]: 6.5%; selectivity ratio at 2 h [1, 23]: 0.7; MIC [20]: 31 µM (≈ 49.8 µg/mL); Minimal bactericidal concentration (MBC) [11]: > 125 µM; Minimal inhibitory concentration (MIC) [12]: 31 µM (≈ 49.8 µg/mL); Minimal bactericidal concentration (MBC) [15]: > 125 µM; Minimal inhibitory concentration (MIC) [15]: 125 µM (≈ 201 µg/mL); Minimal bactericidal concentration (MBC) [16]: 62 µM (≈ 99.6 µg/mL); Minimal inhibitory concentration (MIC) [16]: 31 µM (≈ 49.8 µg/mL); Minimal bactericidal concentration (MBC) [17]: > 125 µM; Minimal inhibitory concentration (MIC) [17]: > 125 µM; IC50 ([18]; human): 140 µg/mL and 87 µM
